We go through 35 compounds from PMC6095626, “Screening of the Pathogen Box for inhibitors with dual efficacy against Giardia lamblia and Cryptosporidium parvum” (PLoS Neglected Tropical Diseases, 2018).

Experiment [1] deals with G. lamblia trophozoites (luciferase expressing, WBC6). The experiment can be described thus: microbe, parasite or virus in culture. The conditions noted are these: for Giardia (16 uM) Mean % inhibition: initial Pathogen Box screen, single concentration 16 µM, inhibition compared to DMSO wells. In kind it is cell-based, Giardia lamblia. The method, then: Trophozoites were harvested by chilling cultures on ice for 30 minutes and plated by adding 150 μL per well at a concentration of 250,000 cells/mL. Metronidazole (Sigma, St. Louis, MO) was used as a control and was serially diluted 1:2 from 40 μM to 0.04 μM and 150 μL was added to the 150 μL of the G. lamblia trophozoites. Plates were covered in plastic low-evaporation lids, sealed in individual anaerobic BD GasPak Bio-Bags (Becton Dickinson, San Jose, CA) and incubated at 37 °C for 24 hours. […] A duplicate plate was concurrently set up and assayed using a MOXI Z Mini Automated Cell Counter Kit (Orflo, Ketchum, ID). Results obtained from the bioluminescence assay and the MOXI counter data were compared to evaluate their correlation to each another. Albendazole (Sigma, St. Louis, MO), an alternative giardiasis therapeutic, was assayed in concentrations from 4 μM to 0.004 μM with only the luciferase expressing G. lamblia cells. […]

For experiment [2], the system named is C. parvum (UGA1 Nluc expressing strain in HCT-8 cells). Put plainly: microbe, parasite or virus in culture. It is filed as cell-based, Cryptosporidium parvum. Conditions: for Crypto (10 uM) Mean % inhibition: initial Pathogen Box screen, single concentration 10 µM, inhibition compared to DMSO wells. The method, then: Growth inhibition and EC50 determination assays were performed using UGA1 Nluc expressing C. parvum strain in HCT-8 cells (ATCC^©, Manassas, VA) as previously described. HCT-8 cells were inoculated onto 96-well plates and allowed to grow for 48 hours to 90–100% confluence and then treated with single concentration (10 μM) or serially diluted compounds prior to oocyst infection. C. parvum oocysts were incubated for 10 minutes in 10% bleach at room temperature and then washed with DPBS. […] The cell monolayers were lysed for 1 hour before adding Nano-Glo® luciferase reagent (Promega, Madison, WI), and measuring relative luminescence units (RLU) in an EnVision Plate Reader (Perkin Elmer, Waltham, MA). Several parameters, including reproducibility and reliability, were previously evaluated to optimize this assay for low and high-throughput (HTP) screening of small molecule compounds against C. parvum. EC50 values were calculated using Prism 7 software (GraphPad Software, San Diego, CA).
C. parvum screening against the Pathogen Box compounds was performed as previously described starting at a concentration of 10 μM [23].

On to `Cc1ccc(Oc2ccc(NC(=O)CNc3ccccc3N3CCCC3=O)cc2)cc1` [MMV020512], for which the “Giardia (16 uM) Mean % inhibition” value in experiment [1] is reported as “X* (Mean or standard deviation are negative but not significantly different from the control to be a growth promoter)”. Besides, the “Crypto (10 uM) Mean % inhibition” value in experiment [2] came to 80%.
For `COc1ccccc1CNC(=O)c1cc(C2CC2)nc2c1cnn2C(C)C` [MMV020517], in that order: “X* (Mean or standard deviation are negative but not significantly different from the control to be a growth promoter)” and “X* (Mean or standard deviation are negative but not significantly different from the control to be a growth promoter)”.
Turning to `Cc1cc2ccccc2n1CC(=O)N1CC(C(=O)N2CCCCC2)Oc2ccccc21` (stereo not drawn) [MMV020520], the “Giardia (16 uM) Mean % inhibition” value in experiment [1] came out at 6.36%. Further, the “Crypto (10 uM) Mean % inhibition” value in experiment [2] is on record as 68%.
Taken in the same sequence, the figures for `O=C(NC1CC1)c1ccc(N2CCOc3ccc(Cl)cc32)s1` [MMV020537] were 4.66% and 55%.
For `CC(C)C(NC(=O)Cc1cccc2ccccc12)C(=O)Nc1cccc(C#N)c1` (stereo not drawn) [MMV020591], in that order: 16% and 55%.
Taken in the same sequence, the figures for `Cc1noc(C)c1C(=O)N1CCCC(c2[nH]c3c(C)cccc3c2-c2ccncc2)C1` (stereo not drawn) [MMV020623] were “X* (Mean or standard deviation are negative but not significantly different from the control to be a growth promoter)” and 43%.
In the case of `COc1ccc(-c2cncc3ccc(C(=O)NCCCn4ccnc4)nc23)cc1` [MMV020670], the “Giardia (16 uM) Mean % inhibition” value in experiment [1] is on record as 19%. Also, in experiment [2], the “Crypto (10 uM) Mean % inhibition” value worked out at 42%.
With `COc1ccc(Cl)cc1NC(=O)CN(C)C(=O)c1cnn(-c2ccccc2)n1` [MMV020710], in experiment [1], the “Giardia (16 uM) Mean % inhibition” value came to 7.5%. The “Crypto (10 uM) Mean % inhibition” value in experiment [2] is recorded as 43%.
Taken in the same sequence, the figures for `CC(C)(C)c1cc(C(=O)Nc2cccnc2)cc(C(=O)Nc2cccnc2)c1` [MMV020982] were 10% and 67%.
For the compound `c1ccc(-c2nc(NC3CCCCC3)cc(C3CC3)n2)nc1` [MMV021013], in experiment [1], the “Giardia (16 uM) Mean % inhibition” value is on record as 65%. Further, the “Crypto (10 uM) Mean % inhibition” value in experiment [2] is given as 92%.
Taken in the same sequence, the figures for `CO/C=C(\C(=O)OC)c1ccccc1Oc1cc(Oc2ccccc2C#N)ncn1` [MMV021057] were 3.75% and 51%.
As for `Cc1cc(NCC(C)C)c2[nH]nc(-c3ccccc3)c2n1` [MMV021375], the “Giardia (16 uM) Mean % inhibition” value in experiment [1] worked out at 62%. The “Crypto (10 uM) Mean % inhibition” value in experiment [2] is given as “X* (Mean or standard deviation are negative but not significantly different from the control to be a growth promoter)”.
For `Cc1cc(NCCc2ccccc2)nc(NC(=N)Nc2ccc(Cl)cc2)n1` [MMV021660], in that order: 90% and “X* (Mean or standard deviation are negative but not significantly different from the control to be a growth promoter)”.
Taken in the same sequence, the figures for `CN1CCC(NCc2cccc(-c3ccc(S(=O)(=O)NCc4ccccc4)cc3)c2)CC1` [MMV022029] were 89% and “X* (Mean or standard deviation are negative but not significantly different from the control to be a growth promoter)”.
For `CCN(CC)CCCN1CCN(C(=O)c2cccc(-c3noc(C(F)(F)F)n3)c2)CC1` [MMV022236], in that order: 8% and 38%.
In the case of `c1ccc2c(c1)CN(CC1CC1)CC1(CCN(Cc3c[nH]c4cnccc34)CC1)O2` [MMV023183], in experiment [1], the “Giardia (16 uM) Mean % inhibition” value is 72%. Besides, the “Crypto (10 uM) Mean % inhibition” value in experiment [2] is recorded as “X* (Mean or standard deviation are negative but not significantly different from the control to be a growth promoter)”.
Take `Cc1nc(-c2cccc(NCc3ccccc3)c2)[nH]c1C` [MMV023227]: the “Giardia (16 uM) Mean % inhibition” value in experiment [1] came to 58%. In addition, the “Crypto (10 uM) Mean % inhibition” value in experiment [2] is 25%.
Taken in the same sequence, the figures for `Nc1nccc2ccc(-c3ccc4nccn4c3)cc12` [MMV023233] were 85% and “X* (Mean or standard deviation are negative but not significantly different from the control to be a growth promoter)”.
For `Nc1ncc(-c2cn[nH]c2)cc1-c1nc2cc(Cl)cnc2[nH]1` [MMV023370], in that order: 38% and “X* (Mean or standard deviation are negative but not significantly different from the control to be a growth promoter)”.
For `O=C(NC1CCN(c2ccnc3ccccc23)C1)c1cccc(C(F)(F)F)c1` (stereo not drawn) [MMV023388], in that order: 86% and “X* (Mean or standard deviation are negative but not significantly different from the control to be a growth promoter)”.
With `NS(=O)(=O)c1cccc(-c2ccc3ncc(N4CCOCC4)nc3c2)c1` [MMV023860], the “Giardia (16 uM) Mean % inhibition” value in experiment [1] was 27%. Further, in experiment [2], the “Crypto (10 uM) Mean % inhibition” value is on record as 89%.
For `CC(C)(C)c1cc(C(=O)N2CCN(c3nccnc3C#N)CC2)n(Cc2ccccc2)n1` [MMV023949], in that order: 36% and 55%.
Turning to `O=C(Nc1cccc(-c2ccc(NCCCN3CCCC3)nc2)c1)c1ccccc1` [MMV023953], the “Giardia (16 uM) Mean % inhibition” value in experiment [1] amounted to 82%. Also, the “Crypto (10 uM) Mean % inhibition” value in experiment [2] is “X* (Mean or standard deviation are negative but not significantly different from the control to be a growth promoter)”.
As for `c1cncc(NCc2ccc(-c3cc4ccncc4cc3OC3CCNCC3)s2)c1` [MMV023969], in experiment [1], the “Giardia (16 uM) Mean % inhibition” value came out at 11%. Moreover, the “Crypto (10 uM) Mean % inhibition” value in experiment [2] worked out at 25%.
For `COc1ccc(-c2cnc3ccc(N4CCCC4)nn23)cc1OC` [MMV023985], in that order: “X* (Mean or standard deviation are negative but not significantly different from the control to be a growth promoter)” and 93%.
Taken in the same sequence, the figures for `O=C(Nc1ccccc1)c1ccc(-c2cc3ccncc3cc2OC2CCNCC2)s1` [MMV024035] were 66% and 27%.
Taken in the same sequence, the figures for `NS(=O)(=O)c1cncc(-c2ccc3nccc(-c4cn[nH]c4)c3n2)c1` [MMV024101] were 14% and “X* (Mean or standard deviation are negative but not significantly different from the control to be a growth promoter)”.
`Cc1ccc(S(=O)(=O)n2cc(-c3ccnc(N)c3)c3cc(Br)cnc32)cc1` [MMV024114]: the “Giardia (16 uM) Mean % inhibition” value in experiment [1] turned out to be 78%. Moreover, the “G. lamblia EC50” value in experiment [1] (luciferase expressing G. lamblia trophozoites, 24 hours, D-luciferin bioluminescence read-out) is “not potent”. In addition, the “Crypto (10 uM) Mean % inhibition” value in experiment [2] is given as 86%.
On to `CN(C)CCNC(=O)N1CCCN(c2ncnc3cc(-c4ccccc4)sc23)CC1` [MMV024195], for which, in experiment [1], the “Giardia (16 uM) Mean % inhibition” value came to 31%. In addition, in experiment [2], the “Crypto (10 uM) Mean % inhibition” value came out at 15%.
For `Cc1ccc2[nH]c(C3CCCNC3)c(-c3ccncc3)c2c1` (stereo not drawn) [MMV024311], in that order: 22% and 56%.
Taken in the same sequence, the figures for `O=C(NC1CC1)c1ccc(N2CCC(Cc3ccccc3)CC2)nc1` [MMV024397] were “X* (Mean or standard deviation are negative but not significantly different from the control to be a growth promoter)” and “X* (Mean or standard deviation are negative but not significantly different from the control to be a growth promoter)”.
For the compound `O=C(Nc1cccc(Cl)c1)c1cnc(N2CCN(c3ccncc3)CC2)c(Cl)c1` [MMV024406], the “Giardia (16 uM) Mean % inhibition” value in experiment [1] worked out at 91%. Also, the “C. parvum EC50” value in experiment [2] (Nluc C. parvum in HCT-8 cells, 48 hours) is given as “not potent”. The “Crypto (10 uM) Mean % inhibition” value in experiment [2] was 91%.
In the case of `CN(C(=O)c1cc2c(-c3cncnc3)cccc2[nH]1)c1ccccc1` [MMV024443], the “Giardia (16 uM) Mean % inhibition” value in experiment [1] is given as “X* (Mean or standard deviation are negative but not significantly different from the control to be a growth promoter)”. Moreover, the “Crypto (10 uM) Mean % inhibition” value in experiment [2] was found to be 87%.
Taken in the same sequence, the figures for `Cc1cccc(C(=O)Nc2ccnc(N(C)C3CCN(CC(C)C)CC3)c2)c1` [MMV024829] were 89% and “X* (Mean or standard deviation are negative but not significantly different from the control to be a growth promoter)”.
For `O=C(Nc1ccc(N2CCNCC2)nc1)c1oc(-c2ccccc2)nc1C(F)(F)F` [MMV024937], in that order: 7% and “X* (Mean or standard deviation are negative but not significantly different from the control to be a growth promoter)”.
